{
  "source": "patent US6921764B2",
  "about": "“Thieno-pyrimidin-4-one AMPA antagonists” (Pfizer Inc., priority 1997, dated 2005)",
  "data": [
    {"test_system": "global and focal ischemic damage", "conditions": "focal and global ischemia models; reported in literature; cited from earlier work", "values": [
      {"smiles": "NS(=O)(=O)c1cccc2c1c([N+](=O)[O-])cc1nc(O)c(O)nc12", "note": "[NBOX, 2,3-dihydroxy-6-nitro-7-sulfamoylbenzo[f-]quinoxaline]", "prevention of global and focal ischemic damage": "effective in preventing global and focal ischemic damage"}
    ]},
    {"test_system": "rat global ischemia models", "conditions": "reported in literature; cited from earlier work", "values": [
      {"smiles": "CC1=NN=C(c2ccc(N)cc2)c2cc3c(cc2C1)OCO3", "note": "[GKYI 52466]", "neuroprotection in rat global ischemia models": "effective neuroprotective agent"}
    ]},
    {"test_system": "not given", "conditions": "not given", "units": {"melting point": "°C"}, "values": [
      {"smiles": "N#Cc1ccccc1NCc1nc2ccc(F)cc2c(=O)n1-c1cccnc1Cl", "melting point": "183 to 187"},
      {"smiles": "O=c1c2cc(F)ccc2nc(CNCc2ccccc2F)n1-c1ccccc1Cl", "melting point": 140},
      {"smiles": "N#Cc1cccnc1NCc1nc2ccc(F)cc2c(=O)n1-c1ccccc1Cl", "melting point": "145 to 150"},
      {"smiles": "O=c1c2cc(F)ccc2nc(CNc2ccccc2F)n1-c1cccnc1Cl", "melting point": "180 to 182"},
      {"smiles": "Cl.O=c1c2sccc2nc(CNc2cccc(CN3CCCC3)c2)n1-c1ccccc1Cl", "melting point": "148 to 151"},
      {"smiles": "N#Cc1cccc(NCc2nc3ccc(F)cc3c(=O)n2-c2ccccc2Cl)c1", "melting point": "225 to 228"},
      {"smiles": "O=c1c2cc(F)ccc2nc(CNc2ncccn2)n1-c1ccccc1Cl", "melting point": "182 to 185"},
      {"smiles": "Cc1cccc(NCc2nc3ccc(F)cc3c(=O)n2-c2cccnc2Cl)n1", "melting point": "190 to 195"},
      {"smiles": "Cl.O=c1c2cc(F)ccc2nc(CNc2ccccn2)n1-c1ccccc1Cl", "melting point": "90 to 100"},
      {"smiles": "O=c1c2cc(F)ccc2nc(CNc2cccc(CN3CCCC3)c2)n1-c1ccccc1Cl", "note": "[Example 12, 3-(2-Chloro-phenyl)-6-fluoro-2-[(3-pyrrolidin-1-ylmethyl-phenylamino)-methyl]-3H-quinazolin-4-one]", "melting point": "105 to 110"},
      {"smiles": "O=c1c2sccc2nc(CNc2ccccc2F)n1-c1ccccc1Cl", "note": "[Example 17, 3-(2-Chloro-phenyl)-2-[(2-fluoro-phenylamino)-methyl]-3H-thieno[3,2-d]pyrimidin-4-one]", "melting point": "175 to 176"}
    ]}
  ]
}
